Data: patent US20260008758A1, “LINEAR DIPEPTIDYL PEPTIDASE 1 INHIBITORS AND USES THEREOF” (Insmed Incorporated, priority 2024, published 2026)
Read-outs that look alike come from different tables or passages of the source.

Tests used:
human DPP1 enzyme = human DPP1 enzyme (Homo sapiens (Human), UniProt P53634); assay: Human DPP1 enzyme IC50 assay; assay type: biochemical
Outline: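 Fluorogenic readout (350/450 nm, every 5 min over 90 min, 37°C) of H-Gly-Arg-AMC cleavage at 400 μM final substrate. Compounds met activated DPP1 first for a 10-min 37°C pre-incubation in MES buffer pH 6.0 with DTT, 1% DMSO final. Four-parameter sigmoidal fit gave IC50.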

DPP1 in HL-60 cells = DPP1 in HL-60 cells (Homo sapiens (Human), UniProt P53634); assay: DPP1 Cell IC50 assay; assay type: cell-based; conditions: H-Gly-Phe-AFC substrate, 60 min pre-incubation
Experimental: Media was changed every three to four days and cells were not allowed to exceed 1×10^6 cells per mL. Prior to assay, cells were collected by centrifugation at 500 rcf for 3 minutes, resuspended in PBS and counted. Cells were diluted in PBS to a concentration of 5×10^5 live cells per mL and transferred to black 96-well plates for assay, 60 μL per well. Test articles were diluted in PBS plus 0.5% DMSO, and 20 μL was added to each assay well. Compound was allowed to pre-incubate with cells with gentle shaking at 100 rpm for 60 minutes at 37° C. in a cell culture incubator maintained at 5% CO2, after which 20 μL of 500 μM H-Gly-Phe-AFC substrate (MP Biomedicals; Solon, OH) was added to each well. Plates were returned to the incubator with shaking at 100 rpm for 30 minutes, after which fluorescence was measured at Excitation/Emission 400/505 nm. % Inhibition was calculated from RFU values compared to control cell wells that received only PBS plus 0.5% DMSO. IC50 values for each compound were calculated via the XLFit (IDBS Version 5.3.1.3) Add-On to Microsoft Excel using the four parameter fit equation y=(A+((B-A)/(1+((C/x)^D)))), which appears as equation number 205 (4 Parameter Logistic Model or Sigmoidal Dose-Response Model) in XLFit.

[1] = recombinant human DPP1, H-Gly-Arg-AMC substrate 400 μM

human DPP1 enzyme, sequence (P53634 25-134): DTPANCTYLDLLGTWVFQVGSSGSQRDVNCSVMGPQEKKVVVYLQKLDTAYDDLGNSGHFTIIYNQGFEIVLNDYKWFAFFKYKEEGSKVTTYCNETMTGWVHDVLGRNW
human DPP1 enzyme, sequence (P53634 231-394): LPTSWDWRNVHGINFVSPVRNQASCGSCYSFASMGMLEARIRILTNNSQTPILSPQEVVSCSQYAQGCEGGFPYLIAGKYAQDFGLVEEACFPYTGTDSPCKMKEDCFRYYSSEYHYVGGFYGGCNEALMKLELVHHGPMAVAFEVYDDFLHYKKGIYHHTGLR
human DPP1 enzyme, sequence (P53634 395-463): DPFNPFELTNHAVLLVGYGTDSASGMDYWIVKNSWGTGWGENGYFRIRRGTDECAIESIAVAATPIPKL
DPP1 in HL-60 cells, sequence (P53634 25-134): as the sequence (P53634 25-134) above
DPP1 in HL-60 cells, sequence (P53634 231-394): as the sequence (P53634 231-394) above
DPP1 in HL-60 cells, sequence (P53634 395-463): as the sequence (P53634 395-463) above

IC50 (human DPP1 enzyme; [1])	IC50 (DPP1 in HL-60 cells)	Structure (SMILES)	IC50 (human DPP1 enzyme)
5 to 15 nM	1 to 2.5 nM	CN(C)C[C@H](O)C(=O)N[C@H](C#N)Cc1ccc(-c2ccc3nnn(C)c3c2)cc1F [Compound 141, (2S)—N-[(1S)-1-cyano-2-[2-fluoro-4-(3-methyl-1,2,3-benzotriazol-5-yl)phenyl]ethyl]-3-(dimethylamino)-2-hydroxypropanamide]	
5 to 15 nM	≥ 2.5 nM	CN(C)C[C@H](O)C(=O)N[C@H](C#N)Cc1ccc(-c2ccc3oc(=O)n(CCN4CCOCC4)c3c2)cc1F [Compound 142, (2S)—N-[(1S)-1-cyano-2-(2-fluoro-4-{3-[2-(morpholin-4-yl)ethyl]-2-oxo-1,3-benzoxazol-5-yl}phenyl)ethyl]-3-(dimethylamino)-2-hydroxypropanamide]	
≥ 15 nM	1 to 2.5 nM	CN(C)C[C@H](O)C(=O)N[C@H](C#N)Cc1ccc(-c2ccc3c(c2)C2(CCCN(C)C2)C(=O)N3C)cc1 (stereo partly drawn) [Compound 145, (2S)—N-[(1S)-1-cyano-2-(4-{1,1′-dimethyl-2-oxospiro[indole-3,3′-piperidin]-5-yl}phenyl)ethyl]-3-(dimethylamino)-2-hydroxypropanamide]	
≥ 15 nM	≥ 2.5 nM	Cn1c(=O)oc2ccc(-c3ccc(C[C@@H](C#N)NC(=O)[C@H](N)CCO)cc3)cc21 [Compound 169, (2R)-2-amino-N-[(1S)-1-cyano-2-[4-(3-methyl-2-oxo-1,3-benzoxazol-5-yl)phenyl]ethyl]-4-hydroxybutanamide]	
≥ 15 nM	≥ 2.5 nM	C[C@@H](O)[C@](C)(N)C(=O)N[C@H](C#N)Cc1ccc(-c2ccc3oc(=O)n(C)c3c2)cc1 [Compound 171A, (2S,3R)-2-amino-N-[(1S)-1-cyano-2-[4-(3-methyl-2-oxo-1,3-benzoxazol-5-yl)phenyl]ethyl]-3-hydroxy-2-methylbutanamide]	
≥ 15 nM	≥ 2.5 nM	C[C@H](O)[C@](C)(N)C(=O)N[C@H](C#N)Cc1ccc(-c2ccc3oc(=O)n(C)c3c2)cc1 [Compound 171B, (2S,3S)-2-amino-N-[(1S)-1-cyano-2-[4-(3-methyl-2-oxo-1,3-benzoxazol-5-yl)phenyl]ethyl]-3-hydroxy-2-methylbutanamide]	
5 to 15 nM	1 to 2.5 nM	CC(C)C(C)(N)C(=O)N[C@H](C#N)Cc1ccc(-c2ccc3oc(=O)n(C)c3c2)cc1 (stereo partly drawn) [Compound 172, 2-amino-N-[(1S)-1-cyano-2-[4-(3-methyl-2-oxo-1,3-benzoxazol-5-yl)phenyl]ethyl]-2,3-dimethylbutanamide]	
≥ 15 nM	≥ 2.5 nM	Cn1c(=O)oc2ccc(-c3ccc(C[C@@H](C#N)NC(=O)CC(N)C4CCCCC4)cc3)cc21 (some centres unmarked) [Compound 188]	
≥ 15 nM	≥ 2.5 nM	CC(C(=O)N[C@H](C#N)Cc1ccc(-c2ccc3oc(=O)n(C)c3c2)cc1)C1(N)CC1 (some centres unmarked) [Compound 195]	
≥ 15 nM	≥ 2.5 nM	Cn1c(=O)oc2ccc(-c3ccc(C[C@@H](C#N)NC(=O)C(N)Cc4cccnc4O)cc3)cc21 (stereo partly drawn) [Compound 199, 2-amino-N-[(1S)-1-cyano-2-[4-(3-methyl-2-oxo-1,3-benzoxazol-5-yl)phenyl]ethyl]-3-(2-hydroxypyridin-3-yl)propanamide]	
≥ 15 nM	≥ 2.5 nM	Cn1c(=O)oc2ccc(-c3ccc(C[C@@H](C#N)NC(=O)C(N)Cc4cncs4)cc3)cc21 (stereo partly drawn) [Compound 201, 2-amino-N-[(1S)-1-cyano-2-[4-(3-methyl-2-oxo-1,3-benzoxazol-5-yl)phenyl]ethyl]-3-(1,3-thiazol-5-yl)propanamide]	
5 to 15 nM	≥ 2.5 nM	Cn1c(=O)oc2ccc(-c3ccc(C[C@@H](C#N)NC(=O)[C@@H](N)Cc4cccnc4)cc3)cc21 [Compound 202, (S)-2-amino-N—((S)-1-cyano-2-(4-(3-methyl-2-oxo-2,3-dihydrobenzo[d]oxazol-5-yl)phenyl)ethyl)-3-(pyridin-3-yl)propanamide]	
5 to 15 nM	≥ 2.5 nM	Cn1c(=O)oc2ccc(-c3ccc(C[C@@H](C#N)NC(=O)C(N)Cc4ccccc4O)cc3)cc21 (stereo partly drawn) [Compound 203, 2-amino-N-[(1S)-1-cyano-2-[4-(3-methyl-2-oxo-1,3-benzoxazol-5-yl)phenyl]ethyl]-3-(2-hydroxyphenyl)propanamide]	
≤ 5 nM	1 to 2.5 nM	Cn1c(=O)oc2ccc(-c3ccc(C[C@@H](C#N)NC(=O)C(N)Cc4cocn4)cc3)cc21 (stereo partly drawn) [Compound 204, 2-amino-N-[(1S)-1-cyano-2-[4-(3-methyl-2-oxo-1,3-benzoxazol-5-yl)phenyl]ethyl]-3-(1,3-oxazol-4-yl)propanamide]	
≥ 15 nM	≥ 2.5 nM	Cn1c(=O)oc2ccc(-c3ccc(C[C@@H](C#N)NC(=O)[C@@H](N)[C@@H]4CCc5ccccc54)cc3)cc21 [Compound 206, (S)-2-amino-N—((S)-1-cyano-2-(4-(3-methyl-2-oxo-2,3-dihydrobenzo[d]oxazol-5-yl)phenyl)ethyl)-2-((R)-2,3-dihydro-1H-inden-1-yl)acetamide]	
≥ 15 nM	≥ 2.5 nM	Cn1c(=O)oc2ccc(-c3ccc(C[C@@H](C#N)NC(=O)[C@@H](N)[C@H]4CCc5ccccc54)cc3)cc21 [Compound 207, (S)-2-amino-N—((S)-1-cyano-2-(4-(3-methyl-2-oxo-2,3-dihydrobenzo[d]oxazol-5-yl)phenyl)ethyl)-2-((S)-2,3-dihydro-1H-inden-1-yl)acetamide]	
≥ 15 nM	≥ 2.5 nM	Cn1c(=O)oc2ccc(-c3ccc(C[C@@H](C#N)NC(=O)[C@H](N)[C@H]4CCCO4)cc3)cc21 [Compound 211, (2R)-2-amino-N-[(1S)-1-cyano-2-[4-(3-methyl-2-oxo-1,3-benzoxazol-5-yl)phenyl]ethyl]-2-[(2R)-oxolan-2-yl]acetamide]	
≥ 15 nM	≥ 2.5 nM	Cn1c(=O)oc2ccc(-c3ccc(C[C@@H](C#N)NC(=O)[C@H](N)[C@@H]4CCCO4)cc3)cc21 [Compound 213, (2R)-2-amino-N-[(1S)-1-cyano-2-[4-(3-methyl-2-oxo-1,3-benzoxazol-5-yl)phenyl]ethyl]-2-[(2S)-oxolan-2-yl]acetamide]	

Structure (SMILES)	IC50 (human DPP1 enzyme; [1])	IC50 (DPP1 in HL-60 cells)	IC50 (human DPP1 enzyme)
CNC[C@H](O)C(=O)N[C@H](C#N)Cc1ccc(-c2ccc3oc(=O)n(C)c3c2)cc1 [Compound 111, (2S)—N-[(1S)-1-cyano-2-[4-(3-methyl-2-oxo-1,3-benzoxazol-5-yl)phenyl]ethyl]-2-hydroxy-3-(methylamino)propanamide]	≥ 15 nM	≥ 2.5 nM	
CN(C)C[C@H](O)C(=O)N[C@H](C#N)Cc1ccc(-c2ccc3c(c2)C2(CCN(C4COC4)CC2)OC3)cc1 [Compound 144, (2S)—N-[(1S)-1-cyano-2-{4-[1′-(oxetan-3-yl)-3H-spiro[2-benzofuran-1,4′-piperidin]-6-yl]phenyl}ethyl]-3-(dimethylamino)-2-hydroxypropanamide]	≥ 15 nM	≥ 2.5 nM	
CCCCOCCn1c(=O)oc2ccc(-c3ccc(C[C@@H](C#N)NC(=O)[C@@H](O)CN(C)C)c(F)c3)cc21 [Compound 146, (2S)—N-[(1S)-2-{4-[3-(2-butoxyethyl)-2-oxo-1,3-benzoxazol-5-yl]-2-fluorophenyl}-1-cyanoethyl]-3-(dimethylamino)-2-hydroxypropanamide]	5 to 15 nM	≥ 2.5 nM	
Cn1c(=O)oc2ccc(-c3ccc(C[C@@H](C#N)NC(=O)C(N)Cc4cc[nH]c4)cc3)cc21 (stereo partly drawn) [Compound 208, 2-amino-N-[(1S)-1-cyano-2-[4-(3-methyl-2-oxo-1,3-benzoxazol-5-yl)phenyl]ethyl]-3-(1H-pyrrol-3-yl)propanamide]		≥ 2.5 nM	< 5 nM
